Experimental findings from ChEMBL document CHEMBL1152231, “Discovery of small molecule agonists for the bombesin receptor subtype 3 (BRS-3) based on an omeprazole lead” (Bioorg Med Chem Lett, 2008) are described below.

Square brackets hold non-standard residues; d marks the D form. Peptide text beside a SMILES is read from it. Nle = CCCC[C@H](N)C(=O)O; βAla = NCCC(=O)O

The target in data set [1] is T1, Bombesin receptor subtype-3 (Homo sapiens, UniProt P32247).
T1 sequence (P32247 whole entry): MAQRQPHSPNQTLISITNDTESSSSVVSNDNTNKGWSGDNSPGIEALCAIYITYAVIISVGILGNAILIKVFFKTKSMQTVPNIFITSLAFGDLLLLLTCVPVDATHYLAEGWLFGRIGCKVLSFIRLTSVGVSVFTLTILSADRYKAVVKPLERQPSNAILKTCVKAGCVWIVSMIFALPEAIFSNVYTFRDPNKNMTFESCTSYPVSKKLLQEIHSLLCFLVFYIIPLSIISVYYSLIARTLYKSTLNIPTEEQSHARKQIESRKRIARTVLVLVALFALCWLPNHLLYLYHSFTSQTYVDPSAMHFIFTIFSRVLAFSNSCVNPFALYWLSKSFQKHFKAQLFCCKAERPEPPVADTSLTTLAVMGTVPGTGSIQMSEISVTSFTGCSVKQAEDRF
In words: Agonist activity at recombinant BRS-3 receptor expressed in baculovirus-transduced HEK293 cells assessed as intracellular calcium mobilization by FLIPR assay. It counts as functional. (Calcium assays in cells follow changes in intracellular calcium, usually with a dye or a luminescent sensor.)

The target of data set [2] is T2, Bombesin receptor subtype-3 (Homo sapiens) (UniProt P32247).
T2 sequence (whole entry): T1 sequence (P32247 whole entry)
Description: Agonist activity at recombinant BRS-3 receptor expressed in baculovirus-transduced HEK293 cells assessed as maximum response of intracellular calcium mobilization by FLIPR assay relative to D-Phe-Gln-Trp-Ala-Val-beta-Ala-His-Phe-Nle-NH2. It counts as functional.

Data set [3] addresses T3, Gastrin-releasing peptide receptor (Homo sapiens, UniProt P30550). In words: Agonist activity at recombinant gastrin releasing peptide receptor expressed in baculovirus-transduced HEK293 cells assessed as intracellular calcium mobilization by FLIPR assay. It counts as functional.
The target of data set [4] is T3, Gastrin-releasing peptide receptor. In words: Binding affinity to gastrin releasing peptide receptor.
For data set [5], the target named is T4, Neuromedin-B receptor (Homo sapiens, UniProt P28336). Description: Agonist activity at recombinant neuromedin B receptor expressed in baculovirus-transduced HEK293 cells assessed as intracellular calcium mobilization by FLIPR assay. It counts as functional.
In data set [6] the target is T1, Bombesin receptor subtype-3. Description: Binding affinity to BRS-3 receptor.
Data set [7] has as its target T4, Neuromedin-B receptor. Description: Binding affinity to neuromedin B receptor.
Data set [8] can be described thus: Volume of distribution at steady state in iv dosed rat. It counts as ADME, organism-based. The following applies: in vivo, read-out: Vdss.
Data set [9] in a line: Half life in iv dosed rat. It counts as ADME, organism-based. The conditions noted are these: in vivo.
The nature of data set [10]: Clearance in iv dosed rat. The class given is ADME, organism-based. The conditions noted are these: in vivo.

T3 sequence (P30550 whole entry): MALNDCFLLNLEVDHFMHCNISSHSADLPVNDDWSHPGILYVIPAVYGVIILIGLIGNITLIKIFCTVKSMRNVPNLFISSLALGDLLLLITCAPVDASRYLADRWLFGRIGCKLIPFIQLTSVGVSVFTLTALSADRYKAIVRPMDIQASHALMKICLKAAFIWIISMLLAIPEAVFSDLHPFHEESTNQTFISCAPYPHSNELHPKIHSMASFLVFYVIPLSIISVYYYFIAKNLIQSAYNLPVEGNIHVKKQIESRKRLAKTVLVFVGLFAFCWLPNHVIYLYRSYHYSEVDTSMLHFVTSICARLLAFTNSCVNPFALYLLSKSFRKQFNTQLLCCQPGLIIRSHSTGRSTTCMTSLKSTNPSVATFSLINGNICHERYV
T4 sequence (P28336 whole entry): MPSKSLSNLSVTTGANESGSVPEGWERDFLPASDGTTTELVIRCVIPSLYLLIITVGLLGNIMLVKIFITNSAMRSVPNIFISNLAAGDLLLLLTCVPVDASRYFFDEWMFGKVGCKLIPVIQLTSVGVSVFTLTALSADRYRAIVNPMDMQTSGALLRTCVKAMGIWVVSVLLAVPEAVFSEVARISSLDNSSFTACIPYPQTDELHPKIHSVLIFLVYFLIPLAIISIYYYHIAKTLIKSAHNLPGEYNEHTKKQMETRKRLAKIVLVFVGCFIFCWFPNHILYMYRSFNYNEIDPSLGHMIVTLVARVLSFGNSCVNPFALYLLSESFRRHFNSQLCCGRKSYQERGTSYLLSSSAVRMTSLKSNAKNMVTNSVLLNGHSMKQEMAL

For the compound `COc1ccc2[nH]c(SCc3ncc(C)c(OC)c3C)nc2c1` [UFIPRAZOLE], the EC50 in [1] was determined as 3.9 µM. For the same compound, in data set [2], the %max turned out to be 64%.
Take `Clc1cc2c(cc1OCc1nc3ccc(Oc4ccccc4)cc3[nH]1)OCO2`: the concentration for a half-maximal effect (EC50) in data set [1] is more than 32 µM.
The same measure, in the same setting: the figure for `COc1ccc2nc(/C=C/c3cc4c(cc3Cl)OCO4)[nH]c2c1` is more than 32 µM; for `COc1ccc2nc(SCc3ccncc3)[nH]c2c1` it is more than 32 µM.
As to `COc1ccc2nc(NCc3cc4c(cc3Cl)OCO4)[nH]c2c1`, the EC50 in [1] was more than 32 µM.
Take `COc1ccc2nc(CCc3cc4c(cc3Cl)OCO4)sc2c1`: in [1], the concentration giving a half-maximal response (EC50) was more than 32 µM.
Consider `COc1ccc2nc(C(C)Cc3cc4c(cc3Cl)OCO4)[nH]c2c1` (stereo not given), for which the EC50 in [1] was 0.35 µM. Besides, in [2], the %max is 83%.
Consider `COc1ccc2nc(SCc3n[nH]c4ccccc34)[nH]c2c1`, for which, in [1], the concentration giving a half-maximal response (EC50) was more than 32 µM.
Regarding `Clc1ccc2nc(COc3cc4c(cc3Cl)OCO4)[nH]c2c1`, in data set [1], the EC50 was found to be 0.57 µM. For the same compound, the %max in [2] worked out at 59%.
Take `COc1ccc2nc(SCc3cc4c(cc3Cl)OCO4)[nH]c2c1`: the concentration for a half-maximal effect (EC50) in [1] amounted to 0.38 µM. Besides, the %max in [2] turned out to be 67%.
Regarding `CCCC[C@H](NC(=O)[C@H](Cc1ccccc1)NC(=O)[C@H](Cc1c[nH]cn1)NC(=O)CCNC(=O)[C@@H](NC(=O)[C@H](C)NC(=O)[C@H](Cc1c[nH]c2ccccc12)NC(=O)[C@H](CCC(N)=O)NC(=O)[C@H](N)Cc1ccccc1)C(C)C)C(N)=O` (H-[dF]QWAV[βAla]HF[Nle]-NH2), the figures for the concentration giving a half-maximal response (EC50) (in data set [3]; in data set [1]; at Neuromedin-B receptor [5]) were 0.06 nM, 0.0039 µM and 0.55 nM, respectively. Also, the Ki came out at 0.99 nM in [4], 0.36 nM in data set [6] and 8.9 nM on Neuromedin-B receptor [7].
With `COc1ccc2nc(NC(=O)c3cc4c(cc3Cl)OCO4)[nH]c2c1`, in [1], the half-maximal effective concentration (EC50) was more than 32 µM.
Take `Cc1cc2nc(COc3cc4c(cc3Cl)OCO4)[nH]c2cc1Cl`: the EC50 in data set [1] is more than 32 µM.
For `COc1ccc2nc(SCc3ccc(F)c(F)c3)[nH]c2c1`, in [1], the half-maximal effective concentration (EC50) is more than 32 µM.
Consider `COc1ccc2[nH]c([S+]([O-])Cc3ncc(C)c(OC)c3C)nc2c1` (stereo not given) [OMEPRAZOLE], for which the concentration giving a half-maximal response (EC50) in data set [1] is 14 µM. For the same compound, in data set [2], the %max worked out at 27%.
`COc1cc(CSc2nc3ccc(OC)cc3[nH]2)cc(OC)c1`: the EC50 in data set [1] worked out at 1.6 µM. Moreover, in [2], the %max is 68%.
On to `COc1ccc2nc(CCc3cc4c(cc3Cl)OCO4)[nH]c2c1`, for which the 50% effective concentration (EC50) in [1] stood at 0.21 µM. For the same compound, the %max in [2] amounted to 82%.
In the case of `COc1ccc2nc(COc3cc4c(cc3Cl)OCO4)[nH]c2c1`, the Vd in [8] turned out to be 1.2 L/kg. The compound further gave a half-life in [9] of 30 min. For the same compound, the concentration for a half-maximal effect (EC50) in [1] was 0.51 µM. Also, the %max in data set [2] stood at 71%. The clearance in data set [10] was determined as 61 mL/min/kg.
Consider `COc1ccc2sc(CCc3cc4c(cc3Cl)OCO4)nc2c1`, for which the 50% effective concentration (EC50) in data set [1] was more than 32 µM.
For `COc1ccc2nc(SCc3ccc4ccccc4c3)[nH]c2c1`, in data set [1], the EC50 is more than 32 µM.
For `FC(F)(F)c1ccc2nc(COc3cc4c(cc3Cl)OCO4)[nH]c2c1`, in data set [1], the EC50 stood at 0.24 µM. In addition, the %max in data set [2] was 69%.
`COc1ccc2oc(CCc3cc4c(cc3Cl)OCO4)nc2c1`: in data set [1], the EC50 was more than 32 µM.
In the case of `COc1ccc2nc(CCc3cc4c(cc3Cl)OCO4)oc2c1`, the half-maximal effective concentration (EC50) in data set [1] is more than 32 µM.

The EC50 is the midpoint of the concentration-response curve. Usually Ki stands for the equilibrium dissociation constant of an inhibitor or competing ligand from its target. In general, half-life refers to the time in which the quantity being followed falls by half. By clearance is commonly meant a measure of how efficiently the substance is removed, as volume per time. A higher clearance goes with efficient removal.
